Experimental data from article PMC7761830, “Structure-Based Virtual Screening of Ultra-Large Library Yields Potent Antagonists for a Lipid GPCR” (Biomolecules, 2020).
Residue numbers refer to the chain shown, from its start. Where “and” joins values, the source holds several entries; their conditions need not be identical. Equal values may be shown once.

Assays:
Format in all cases: cell-based
wild-type CysLT1R [1] = target: T1, wild-type CysLT1R (Homo sapiens, UniProt Q9Y271); test: IP1 production assay, antagonist mode, co-stimulation with EC80 LTD4
T1 construct: expressed in transfected cells; host or cells: HEK293 (ATCC CRL-1573), transient transfection with Lipofectamine 3000
T1 sequence (Q9Y271 1-337): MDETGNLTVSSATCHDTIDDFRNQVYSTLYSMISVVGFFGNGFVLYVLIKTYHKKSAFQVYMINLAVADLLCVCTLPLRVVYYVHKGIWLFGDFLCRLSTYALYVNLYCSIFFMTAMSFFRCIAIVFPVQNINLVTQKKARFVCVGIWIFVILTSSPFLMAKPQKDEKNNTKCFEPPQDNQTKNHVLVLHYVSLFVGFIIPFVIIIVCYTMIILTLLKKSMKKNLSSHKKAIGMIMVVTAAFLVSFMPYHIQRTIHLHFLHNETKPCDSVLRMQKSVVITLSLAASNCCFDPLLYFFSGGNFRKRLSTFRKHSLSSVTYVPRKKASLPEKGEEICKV

wild-type CysLT2R [2] = target: T2, wild-type CysLT2R (Homo sapiens, UniProt Q9NS75); test: as above
T2 construct: expressed in transfected cells; host or cells: HEK293 (ATCC CRL-1573), transient transfection with Lipofectamine 3000
T2 sequence (Q9NS75 1-346): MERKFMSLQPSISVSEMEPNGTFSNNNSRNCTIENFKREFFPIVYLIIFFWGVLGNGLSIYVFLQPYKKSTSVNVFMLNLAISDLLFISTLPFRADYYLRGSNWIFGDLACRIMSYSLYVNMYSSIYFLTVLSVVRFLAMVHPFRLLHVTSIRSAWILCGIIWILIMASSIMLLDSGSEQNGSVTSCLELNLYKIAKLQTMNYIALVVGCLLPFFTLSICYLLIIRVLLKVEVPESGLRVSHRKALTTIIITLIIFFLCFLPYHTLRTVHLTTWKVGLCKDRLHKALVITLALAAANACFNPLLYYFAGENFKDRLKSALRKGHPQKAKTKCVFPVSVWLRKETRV

wild-type CysLT1R [3] = target: T1, wild-type CysLT1R; test: IP1 production assay, antagonist mode, LTC4 (EC80) as agonist; conditions: HEK293, wild-type CysLT1R, LTC4 at EC80
Protocol: (§1) All 139 selected compounds were screened in a functional assay measuring IP1 production as an indicator of Gαq activation. For this assay, we used the Cisbio IP-One kit as previously described. Human Embryonic Kidney (HEK) 293 cells (ATCC CRL-1573) between passages 5 and 25 were seeded onto poly-L-Lysine-coated 384-well plates at 20,000 cells/well and transfected with 30 ng of cDNA coding for the wild-type CysLT1R or CysLT2R receptors or for the CysLT2R mutant L129Q, using the Lipofectamine 3000 (Thermo Fisher Scientific) transfection agent. At 48 h post-transfection, the media was removed and the cells were washed with fresh Hank’s Balanced Salt Solution (HBSS). […] First, all 139 selected compounds were screened at a 30 µM concentration in both the agonist and antagonist mode in cells transiently expressing the wildtype CysLT1R or CysLT2R receptors. […] For CysLT1R, the compounds retained were BRI-12328, BRI-12334, BRI-12359, BRI-12410, BRI-12411, BRI-12417, BRI-12424, BRI-12435, BRI-12450, and BRI-12458; for CysLT2R, these were BRI-12328, BRI-12334, BRI-12359, BRI-12401, BRI-12402, BRI-12405, BRI-12410, BRI-413, BRI-12417, BRI-12424, BRI-426, BRI-427, BRI-450, BRI-453, BRI-454, BRI-458, and BRI-466. These hits were again tested in the antagonist mode with compound concentrations ranging from 1.56 µM to 100 µM, at 2-fold concentration intervals. The three best hits (BRI-12359, BRI-417, and BRI-424) were also tested using the LTC4 ligand (EC80 concentration) and in cells transiently expressing the constitutively active CysLT2R mutant L129Q. […] After compound stimulation, the cells were incubated for 1 h at 37 °C and stimulated with IP1-D2 and Ab-Crypt reagents in Lysis Buffer. The cells were then incubated at room temperature for an additional hour. The plate was read on a Tecan Genios Pro plate reader using a HTRF (homogeneous time-resolved fluorescence) filter set (λex = 320 nm, λem = 620 and 655 nm). Normalized data were plotted using either the three-parameter or four-parameter EC50/IC50 fits of GraphPad Prism 8 (San Diego). […] Data represent the means ± SEM of at least three independent experiments performed in quadruplicate. For the additional antagonist experiments performed with BRI-12359, we performed Schild analysis in order to determine pA2 values.

wild-type CysLT2R [4] = target: T2, wild-type CysLT2R; test: as above; conditions: HEK293, wild-type CysLT2R; LTC4 at EC80
Protocol: as §1

CysLT2R mutant L129Q = target: T3, CysLT2R mutant L129Q (Homo sapiens, UniProt Q9NS75, L129Q); test: IP1 production assay, constitutively active mutant, direct compound stimulation (inverse agonism)
T3 construct: expressed in transfected cells; host or cells: HEK293 (ATCC CRL-1573), transient transfection with Lipofectamine 3000
T3 sequence (Q9NS75 1-346 L129Q): T2 sequence (Q9NS75 1-346) with L129Q
Protocol: as §1
This effect would be particularly interesting in the case of the L129Q CysLT2R mutant identified in uveal melanoma patients. We tested these three compounds in the functional IP1 assay using cells transiently expressing the L129Q CysLT2R mutant, directly stimulated with a range of compound concentrations (1.6 to 100 μM).

CysLT1R-WT = target: T4, CysLT1R-WT (Homo sapiens, UniProt Q9Y271); test: IP1 production assay, Schild analysis: fixed BRI-12359 then range of LTD4
T4 construct: expressed in transfected cells; host or cells: HEK293 (ATCC CRL-1573), transient transfection with Lipofectamine 3000
T4 sequence (Q9Y271 1-337): T1 sequence (Q9Y271 1-337)
Protocol: (§2) For this assay, we used the Cisbio IP-One kit as previously described. […] At 48 h post-transfection, the media was removed and the cells were washed with fresh Hank’s Balanced Salt Solution (HBSS). […] After compound stimulation, the cells were incubated for 1 h at 37 °C and stimulated with IP1-D2 and Ab-Crypt reagents in Lysis Buffer. The cells were then incubated at room temperature for an additional hour. […] Normalized data were plotted using either the three-parameter or four-parameter EC50/IC50 fits of GraphPad Prism 8 (San Diego). […] Data represent the means ± SEM of at least three independent experiments performed in quadruplicate.

CysLT2R-WT = target: T5, CysLT2R-WT (Homo sapiens, UniProt Q9NS75); test: as above
T5 construct: expressed in transfected cells; host or cells: HEK293 (ATCC CRL-1573), transient transfection with Lipofectamine 3000
T5 sequence (Q9NS75 1-346): T2 sequence (Q9NS75 1-346)
Protocol: as §2

Compound: NC(=O)c1ccsc1NC(=O)CSc1nnc(-c2c[nH]c3ccccc23)o1 [BRI-12359]
- Ki (wild-type CysLT1R [1]): 1.03 ± 0.28 µM
- remaining activity at 30 µM (wild-type CysLT1R [1]): 5.59%
- Emax (wild-type CysLT1R [1]; HEK293, read-out: CysLT1R (LTD4) % Max Inhibition ± SEM): 121 ± 13%
- extent of inhibition of LTD4-mediated response at CysLT1R (in words) (wild-type CysLT1R [1]; antagonist mode, 1.5 to 100 µM): completely inhibit
- Ki (wild-type CysLT2R [2]): 6.46 ± 0.43 µM
- remaining activity at 30 µM (wild-type CysLT2R [2]): 36.2%
- inhibition at 30 µM (wild-type CysLT2R [2]; HEK293, compound 30 µM, LTD4 at EC80, HEK293, wild-type CysLT2R, read-out: inhibition of LTD4-induced IP1 production, single-concentration screen): ≥ 50%
- Emax (wild-type CysLT2R [2]; HEK293, read-out: CysLT2R (LTD4) % Max Inhibition ± SEM): 92 ± 15%
- extent of inhibition of LTD4-induced response at CysLT2R (in words) (wild-type CysLT2R [2]; antagonist mode, 1.5 to 100 µM): fully abolished
- CysLT1R (LTC4) % Max Inhibition ± SEM (wild-type CysLT1R [3]): 105 ± 7%
- Ki (wild-type CysLT1R [3]; functional Ki by Cheng-Prusoff, read-out: CysLT1R (LTC4) Ki ± SEM): 0.7 µM and 0.72 µM
- CysLT2R (LTC4) % Max Inhibition ± SEM (wild-type CysLT2R [4]): 65 ± 11%
- inhibition of IP1 production by CysLT2R L129Q mutant (in words) (CysLT2R mutant L129Q; 100 μM compound): practically full inhibition
- % max inhibition ± SEM of constitutive IP1 accumulation (CysLT2R mutant L129Q; HEK293 transiently expressing CysLT2R L129Q, WT non-stimulated = 0%, L129Q non-stimulated = 100%): 82 ± 11%
- IC50 (CysLT2R mutant L129Q; HEK293 transiently expressing CysLT2R L129Q, compound 1.6 to 100 μM, no agonist, read-out: IC50 ± SEM, inhibition of constitutive IP1 accumulation): 30 to 40 µM and 32 µM
- Kb (CysLT1R-WT): 0.34 ± 0.09 µM
- pA2 ± SEM (CysLT1R-WT; Schild analysis, CysLT1R-WT, LTD4): 6.5 ± 0.1 −log
- Kb (CysLT2R-WT): 105 ± 37 µM
- pA2 ± SEM (CysLT2R-WT; Schild analysis, CysLT2R-WT, LTD4): 4.0 ± 0.2 −log
